Laboratory results taken from a compilation of properties of binary mixtures (doi:10.1016/j.fluid.2020.112621).

Assay: xn = mol fraction of the nth substance listed
Details: 101 kPa

CC(=O)[O-].CCCC[NH2+]CCO + CCCC[n+]1ccn(C)c1.O=S(=O)([N-]S(=O)(=O)C(F)(F)F)C(F)(F)F
viscosity [mPa·s]
Details | x1 = 0.1012 | x1 = 0.2257 | x1 = 0.3002 | x1 = 0.423 | x1 = 0.4998 | x1 = 0.6018 | x1 = 0.6987 | x1 = 0.8008 | x1 = 0.901 | x1 = 1
278.15 K | – | – | – | – | – | – | – | – | – | 6138
283.15 K | – | 183.1 | 226.7 | 353 | 481 | 745 | 1144.5 | – | 2806 | –
288.15 K | 96.2 | 134.7 | – | 248.3 | 331.5 | 499 | 745 | – | 1734.8 | 2230
293.15 K | 74.29 | 101.5 | 121.9 | 179.1 | 234.7 | 344 | 501 | 765 | 1109.3 | 1412.3
298.15 K | 58.45 | – | 92.4 | 132.2 | 170.1 | 243.1 | 346 | – | – | –
303.15 K | 46.77 | 61.09 | 71.45 | 99.7 | – | 176 | 244.7 | – | 495 | 617
308.15 K | 38.01 | 48.63 | – | 76.6 | 95.3 | 130.1 | 177.2 | 251.7 | 343 | –
313.15 K | 31.32 | 39.3 | 44.89 | 59.83 | – | 98.1 | – | – | – | –
318.15 K | 26.13 | – | 36.38 | 47.48 | 57.42 | 75.3 | – | 134.2 | – | 212.7
323.15 K | 22.05 | 26.72 | 29.87 | 38.23 | 45.61 | 58.7 | – | 100.8 | 130.4 | 155.3
328.15 K | 18.81 | – | 24.83 | 31.18 | 36.74 | – | 58.7 | 77 | – | 115.3
333.15 K | 16.19 | 19 | 20.86 | 25.75 | 29.98 | 37.29 | 46.37 | 59.7 | 74.8 | 87
338.15 K | 14.06 | 16.27 | 17.7 | 21.49 | 24.74 | 30.3 | – | 47.02 | 58 | 66.7
343.15 K | 12.31 | – | 15.16 | 18.12 | – | 24.92 | 30.07 | 37.51 | – | –
348.15 K | 10.85 | 12.23 | 13.09 | – | 17.4 | 20.7 | 24.65 | 30.28 | 36.31 | 40.87
353.15 K | 9.63 | 10.72 | 11.4 | 13.24 | 14.79 | 17.37 | 20.42 | 24.73 | – | –
358.15 K | 8.6 | 9.47 | – | – | – | 14.71 | 17.08 | 20.41 | 23.84 | 26.29
363.15 K | 7.73 | 8.41 | 8.82 | – | 10.96 | 12.57 | 14.42 | 17 | 19.63 | –
368.15 K | 6.98 | 7.51 | 7.83 | 8.76 | 9.54 | 10.81 | 12.27 | – | 16.31 | –
373.15 K | 6.33 | 6.75 | – | – | – | 9.37 | 10.52 | 12.11 | 13.67 | –
